# Reference: PubChem BioAssay (NCI)
#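 Tested at 5 concentrations; 48 h exposure; 96-well plates; endpoints linearly interpolated, else capped at highest concentration. TGI is the concentration that stops growth completely.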 Peptide text beside a SMILES is read from it. * marks the point of attachment. OSu = O=C1CCC(=O)N1O*; OBn = c1ccc(CO*)cc1; Bn = c1ccc(C*)cc1
# Experiments:
# Assay in all cases: inhibition of tumour cell growth, NCI panel, 48 h
# A549 NSCLC = tested on: A549 NSCLC
# KM12 colon = tested on: KM12 colon
# M14 melanoma = tested on: M14 melanoma
# MALME-3M melanoma = tested on: MALME-3M melanoma
# MDA-MB-231 breast = tested on: MDA-MB-231 breast
# MDA-MB-435 = tested on: MDA-MB-435
# MOLT-4 leukemia = tested on: MOLT-4 leukemia
# NCI-H460 lung = tested on: NCI-H460 lung
# NCI/ADR-RES ovarian = tested on: NCI/ADR-RES ovarian
# SK-MEL-2 melanoma = tested on: SK-MEL-2 melanoma
SMILES,TGI (A549 NSCLC) [µM],TGI (KM12 colon) [µM],TGI (M14 melanoma) [µM],TGI (MALME-3M melanoma) [µM],TGI (MDA-MB-231 breast) [µM],TGI (MDA-MB-435) [µM],TGI (MOLT-4 leukemia) [µM],TGI (NCI-H460 lung) [µM],TGI (NCI/ADR-RES ovarian) [µM],TGI (SK-MEL-2 melanoma) [µM]
O=[N+]([O-])c1ccc(-[n+]2ccc3ccccc3c2)c([N+](=O)[O-])c1,34.1,27.7,8.69,9.09,9.01,7.07,> 21,30.1,11.9,25.2
O=C(c1ccccc1)n1[nH]c(=O)n(-c2ccc(Cl)cc2)c1=O,> 100,> 100,> 100,> 100,> 100,> 100,> 100,> 100,> 100,> 100
Cc1nc2ccccc2cc1C[N+]12CN3CN(CN(C3)C1)C2,> 100,45.8,39.1,32,43.1,49.3,> 100,45.1,56.3,39.8
C=C1[C@H](OCC(C)C)[C@@H](OC(=O)C(C)CC)[C@@H](O)C(C)(C)/C=C/[C@H](C)C(=O)[C@@]2(O)C[C@H](C)[C@H](O)[C@@H]2[C@H]1OC(=O)C(C)CC (stereo not given in full),> 20,> 13.6,> 11.1,> 20,> 12.5,> 20,> 10.3,8.18,> 20,> 15
Cc1nc(N)nc(N)c1N1CCN(Cc2ccccc2)CC1,> 100,> 100,> 100,> 69,> 100,> 100,> 100,> 100,> 92.6,> 100
CCOC(=O)/C=C(/C(=O)OCC)n1ccc(=O)[nH]c1=O,33.8,34.8,13.2,4.4,26.4,24.4,6.12,30.5,40.4,30.4
CCOC(=O)CCC(NC(=O)c1ccc(NCc2ccc3nc(-c4ccccc4)c(Cl)nc3c2)c2ccccc12)C(=O)OCC (stereo not given),> 100,> 100,> 100,> 100,> 100,> 100,27.9,> 100,> 100,> 100
CSc1nc(=O)c(C#N)c(-c2ccccc2)n1C1OC(COC(C)=O)C(OC(C)=O)C(OC(C)=O)C1OC(C)=O (stereo not given),> 100,> 100,> 100,> 100,> 100,> 100,> 100,> 100,> 100,> 100
Cc1ccc(C2(c3ccc(C)c(O)c3C)CCN(C)CC2)c(C)c1O,> 100,> 100,> 100,> 100,> 100,> 100,> 100,> 100,> 100,75.9
Cc1nc2sccn2c1C(=O)OCCOCCOCCOCCOC(=O)c1c(C)nc2sccn12,> 100,> 100,> 100,> 100,> 100,> 100,> 100,> 100,> 100,> 100
CCOC(=O)c1ccc(NC(NC(=O)CC)(C(F)(F)F)C(F)(F)F)cc1,> 100,> 100,> 100,> 100,> 100,> 100,> 100,> 100,> 100,> 100
CC(C)CC(NC(=O)C(N)CCC(=O)OCc1ccccc1)C(=O)NC(COCc1ccccc1)C(=O)NC(Cc1ccccc1)C(=O)ON1C(=O)CCC1=O (stereo not given) (H-E(OBn)LS(Bn)F-OSu; configuration not given here),> 100,> 100,> 100,96.1,40,> 100,62.8,71.8,85.3,65.6
Nc1ccc(-c2nc3cc(F)ccc3s2)cc1,> 100,> 100,> 100,> 100,81.5,> 100,> 100,> 100,> 100,> 100
CCOC(=O)C1=CN(C(=O)c2ccccc2)CCC1Cc1ccccc1 (stereo not given),> 100,> 100,37.1,68,64.9,51,38.5,44.9,93,35.9
CC(C)(C)OC(=O)NCCNC(=O)CN(CC(=O)O)C1CCCCC1N(CC(=O)O)CC(=O)O (stereo not given),> 100,> 100,> 100,> 100,> 100,> 100,> 100,> 100,> 100,> 100
